Patent US20120302573A1, “METHODS OF INHIBITING PRO MATRIX METALLOPROTEINASE ACTIVATION” (priority 2011, published 2012)

Tests used:
[1] = target: T1, proMMP9 (Homo sapiens, UniProt P14780); experiment: Activation of proMMP9 by human fetal lung fibroblast (HFL-1) cultures (Western blot); assay type: cell-based; details: 3.3 μM, 72 hrs, mAb-L51/82
T1 construct: host or cells: HFL-1
Method: Compound α was assessed additionally for ability to block the maturation of proMMP9 to active MMP9 in cultures of human fetal lung fibroblasts (HFL-1, American Type Culture Collection #CCL-153). Unlike rat synoviocytes, HFL-1 cells were unable to process proMMP9 to the active form without addition of neutrophil elastase. […] Rather, the function of elastase in this assay may be to inactivate tissue inhibitors of matrix metalloproteinases (TIMPs) that repress endogenous pathways of MMP9 activation (Am J Respir Crit Care Med; 1999; 159:1138-46).
HLF-1 were maintained in monolayer culture in DMEM with 10% FCS and were used between passage numbers 5-15. HLF-1 were embedded in collagen gels as described for rat SCW synoviocytes (vida supra). […] The plates were cultured an additional 72 hrs, at which time MMP9 secreted into the conditioned media was bound to gelatin-sepharose and evaluated by Western blot analysis as described for the rat synoviocyte cultures (vida supra). mAb-51/82 detected three forms of MMP9 in HFL-1 cultures. […]
A second experiment was performed to determine if the 80 kD form was mature active MMP9 and to determine the potency of Compound α as an inhibitor of MMP9 maturation in this assay. […] In the absence of Compound α, pAb-1246 readily detected MMP9 with an electrophoretic mobility of approximately 80 kD. […]

[2] = test system: rats with SCW-induced arthritis; experiment: Efficacy in rats with SCW-induced arthritis (ankle thickness, clinical score); assay type: in vivo, rat
Method: To induce arthritis, Female Lewis (LEW/N) rats, 5-6 weeks of age (80-100 g) were injected (i.p.) with SCW PG-PS as described above. Eighteen days later, arthritis was well established. Calipers were used to measure the width (anterior to posterior surface) of the left and right hind ankles of each rat. Each ankle was measured 3 times and averaged, and treatment groups were randomized based on ankle thickness (Table 7). Commencing on day 18, randomized groups of arthritic rats (n=5 rats/group) received vehicle or 5, 20, or 50 mg/kg Compound α BID by oral gavage. Vehicle consisted of an aqueous mixture containing 2% (v:v) N-methylpyrrolidone, 5% (v:v) glycerine, and 20% (w:v) captisol. Treatment continued daily through the morning of day 26.
By day 18 mean ankle thickness was increased an average of >4.4 mm compared to disease free rats. Rats treated with vehicle alone continued to gradually develop a more severe arthritis based on ankle thickness measurements over the eight-day treatment period (Table 7). […] By day 26, the disease associated increase in ankle thickness had been reduced 27, 37, and 46 percent by 5, 20, and 50 mg/kg Compound α, respectively.
Hind paw inflammation clinical scores were assigned based on swelling and erythema.

T1 sequence (P14780 20-707 limits assumed): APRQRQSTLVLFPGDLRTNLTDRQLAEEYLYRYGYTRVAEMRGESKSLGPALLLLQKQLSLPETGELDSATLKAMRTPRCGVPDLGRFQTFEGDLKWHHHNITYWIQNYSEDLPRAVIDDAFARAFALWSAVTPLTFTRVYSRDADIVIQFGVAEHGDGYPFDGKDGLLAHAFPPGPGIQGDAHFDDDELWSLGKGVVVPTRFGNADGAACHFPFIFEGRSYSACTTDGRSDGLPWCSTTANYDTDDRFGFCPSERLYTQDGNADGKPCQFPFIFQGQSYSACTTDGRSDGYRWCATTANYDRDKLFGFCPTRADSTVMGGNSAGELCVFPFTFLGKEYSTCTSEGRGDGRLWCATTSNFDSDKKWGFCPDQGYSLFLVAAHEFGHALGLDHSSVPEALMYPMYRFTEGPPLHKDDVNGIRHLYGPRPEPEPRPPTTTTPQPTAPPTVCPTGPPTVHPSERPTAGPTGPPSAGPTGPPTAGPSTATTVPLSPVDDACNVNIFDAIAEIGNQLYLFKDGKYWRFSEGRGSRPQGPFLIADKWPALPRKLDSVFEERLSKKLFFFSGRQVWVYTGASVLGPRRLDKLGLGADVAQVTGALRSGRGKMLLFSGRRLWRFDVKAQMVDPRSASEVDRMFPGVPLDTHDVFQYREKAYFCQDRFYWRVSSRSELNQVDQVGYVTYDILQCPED

Cc1nc(C)c(-c2csc(Nc3cc(S(N)(=O)=O)ccc3OC(C)C)n2)s1 [Compound α, 3-(2′,4′-Dimethyl-[4,5′]bithiazolyl-2-ylamino)-4-isopropoxy-benzenesulfonamide.HBr]
Signal Total [1]: 91346 INT*mm^2 | Day 26 % Inh of disease associated increase in ankle thickness ([2]; 5 mg/kg BID oral): 27% | Day 26 % Inh of disease associated increase in ankle thickness ([2]; 20 mg/kg BID oral): 37% | Day 26 % Inh of disease associated increase in ankle thickness ([2]; 50 mg/kg BID oral): 46%
